Values after ≈ are worked out from the molar mass of the structure shown. Values joined by “and” are separate entries in the source; they are usually repeats but may differ in a detail not shown here. Equal values may be shown once.
Tests used:
Experiment in all cases: ≥ marks a high value that may be exact or a test limit, other limits are often not marked, values filed in µg/mL are converted to µM
Escherichia coli W160-37 = system: Escherichia coli W160-37
[1] = system: Acinetobacter baumannii ATCC 19606
Bacillus subtilis 168 = system: Bacillus subtilis 168
[2] = system: Bacillus subtilis ATCC 23857
[3] = system: Escherichia coli ATCC 25922
[4] = system: Escherichia coli DH5alpha
[5] = system: Klebsiella pneumoniae ATCC 700603
[6] = system: Pseudomonas aeruginosa ATCC 27853
[7] = system: Staphylococcus aureus ATCC 25923
Micrococcus luteus = system: Micrococcus luteus
[8] = system: Pseudomonas aeruginosa ATCC 15692
Saccharomyces cerevisiae = system: Saccharomyces cerevisiae
[9] = system: Staphylococcus aureus NCTC 8325
Staphylococcus aureus = system: Staphylococcus aureus
[10] = system: Candida albicans ATCC 36232
[11] = system: Escherichia coli ATCC 2592
[12] = system: Pseudomonas aeruginosa ATCC 9027
[13] = system: Staphylococcus aureus ATCC 6538
[14] = system: Micrococcus luteus ATCC 9341
[15] = system: Pseudomonas aeruginosa H1001
[16] = system: Erwinia amylovora PMV 6076
[17] = system: Pseudomonas syringae pv. actinidiae Psa3700.1.1
[18] = system: Pseudomonas syringae pv. syringae EPS 94
[19] = system: Xanthomonas arboricola pv. pruni CFBP 5563
[20] = system: Xanthomonas campestris pv. Vesicatoria 2133-2
[21] = system: Xanthomonas fragariae Xf349-9A

## CC[C@H](C)[C@H](NC(=O)[C@H](CC(C)C)NC(=O)[C@H](C)NC(=O)[C@H](CC(C)C)NC(=O)[C@@H](N)Cc1ccccc1)C(=O)N[C@@H](CC(C)C)C(=O)N[C@@H](CCCN=C(N)N)C(=O)N[C@@H](CCCCN)C(=O)N[C@H](C(=O)N[C@H](C(=O)N[C@H](C(=O)N[C@@H](C)C(=O)N[C@@H](CC(C)C)C(N)=O)[C@@H](C)O)C(C)C)[C@@H](C)CC [FLALILRKIVTAL]
Escherichia coli W160-37
  MIC: ≥ 40.8 µM

## CC[C@H](C)[C@H](NC(=O)[C@H](CCCCN)NC(=O)[C@H](CCCCN)NC(=O)[C@@H](NC(=O)[C@@H](NC(=O)[C@H](CCCCN)NC(=O)[C@H](CCCCN)NC(=O)[C@@H](NC(=O)[C@@H](NC(=O)[C@H](CCCCN)NC(=O)[C@H](CCCCN)NC(=O)[C@@H](NC(=O)[C@@H](NC(=O)[C@H](CCCCN)NC(=O)[C@H](CCCCN)NC(=O)[C@@H](NC(=O)[C@@H](NC(=O)CN)[C@@H](C)CC)[C@@H](C)CC)[C@@H](C)CC)[C@@H](C)CC)[C@@H](C)CC)[C@@H](C)CC)[C@@H](C)CC)[C@@H](C)CC)C(N)=O [GIIKKIIKKIIKKIIKKI]
[1]
  MIC: 4 µM (≈ 8.47 µg/mL)
Bacillus subtilis 168
  MIC: 0.5 µM (≈ 1.06 µg/mL)
[2]
  MIC: 2 µM (≈ 4.24 µg/mL)
[3]
  MIC: 8 µM (≈ 16.9 µg/mL)
[4]
  MIC: 2 µM (≈ 4.24 µg/mL)
[5]
  MIC: 8 µM (≈ 16.9 µg/mL)
[6]
  MIC: 4 µM (≈ 8.47 µg/mL)
[7]
  MIC: 4 µM (≈ 8.47 µg/mL)

## CC[C@H](C)[C@H](NC(=O)[C@H](C)NC(=O)[C@H](CCC(=O)O)NC(=O)[C@H](CC(C)C)NC(=O)CNC(=O)CNC(=O)[C@H](CCCCN)NC(=O)[C@H](C)NC(=O)[C@H](Cc1ccccc1)NC(=O)[C@H](CCCCN)NC(=O)[C@H](CCCCN)NC(=O)[C@H](CC(C)C)NC(=O)CNC(=O)CNC(=O)[C@H](CC(C)C)NC(=O)[C@@H](NC(=O)[C@@H](NC(=O)[C@H](CO)NC(=O)[C@H](Cc1c[nH]c2ccccc12)NC(=O)[C@@H](NC(=O)CN)C(C)C)[C@@H](C)O)C(C)C)C(=O)N[C@H](C(=O)N[C@@H](CC(N)=O)C(=O)N1CCC[C@H]1C(=O)N[C@@H](CCCCN)C(=O)O)C(C)C [GVWSTVLGGLKKFAKGGLEAIVNPK]
[3]
  MIC: 5.66 µM (≈ 14.5 µg/mL)
Micrococcus luteus
  MIC: 0.5 µM (≈ 1.29 µg/mL)
[8]
  MIC: ≥ 32 µM
Saccharomyces cerevisiae
  MIC: ≥ 32 µM
[7]
  MIC: 45.3 µM (≈ 116 µg/mL)
[9]
  MIC: ≥ 100 µM

## CC[C@H](C)[C@H](N)C(=O)N[C@@H](CC(C)C)C(=O)N1CCC[C@H]1C(=O)N[C@@H](CC(C)C)C(=O)N[C@@H](CCCCN)C(=O)N[C@@H](CC(C)C)C(=O)N1CCC[C@H]1C(=O)N[C@@H](Cc1c[nH]c2ccccc12)C(=O)N[C@@H](CC(C)C)C(=O)N1CCC[C@H]1C(=O)N[C@@H](CC(C)C)C(=O)N[C@@H](CCCN=C(N)N)C(=O)N[C@@H](CCCN=C(N)N)C(N)=O [ILPLKLPWLPLRR]
Escherichia coli W160-37
  MIC: 12.4 µM (≈ 20 µg/mL)
Staphylococcus aureus
  MIC: 6.19 µM (≈ 9.99 µg/mL)

## CC(C)C[C@H](NC(=O)[C@H](CS)NC(=O)[C@H](CCCCN)NC(=O)[C@H](C)NC(=O)[C@H](C)NC(=O)[C@H](CS)NC(=O)[C@H](C)NC(=O)[C@H](C)NC(=O)[C@@H](N)CCCCN)C(=O)N[C@@H](Cc1c[nH]c2ccccc12)C(=O)N[C@@H](CCCN=C(N)N)C(N)=O [KAACAAKCLWR]
[10]
  MIC: ≥ 164 µM
[11]
  MIC: ≥ 164 µM
[12]
  MIC: 81.9 µM and 164 µM
[13]
  MIC: 41 µM and 81.9 µM

## CC(C)[C@H](NC(=O)[C@H](CCCCN)NC(=O)[C@H](Cc1ccccc1)NC(=O)[C@@H](NC(=O)[C@@H](NC(=O)[C@H](CCCCN)NC(=O)[C@@H](N)CCCCN)C(C)C)C(C)C)C(=O)N[C@@H](CCCCN)C(=O)N[C@@H](Cc1ccccc1)C(=O)N[C@@H](CCCCN)C(=O)N[C@@H](CCCCN)C(=O)N[C@@H](CCCCN)C(N)=O [KKVVFKVKFKKK]
[10]
  MIC: 2.08 µM and 1.47 µM and 4.15 µM
[14]
  MIC: 2.08 µM (≈ 3.13 µg/mL)
[13]
  MIC: 2.08 µM (≈ 3.13 µg/mL)

## CC[C@H](C)[C@H](NC(=O)[C@H](CCCCN)NC(=O)[C@H](Cc1c[nH]c2ccccc12)NC(=O)[C@H](CCCCN)NC(=O)[C@@H](N)CCCCN)C(=O)N[C@H](C(=O)N[C@H](C(=O)N[C@H](C(=O)N[C@@H](CCCN=C(N)N)C(=O)N[C@@H](Cc1c[nH]c2ccccc12)C(=O)N[C@@H](CCCN=C(N)N)C(=O)N[C@@H](CCCN=C(N)N)C(N)=O)[C@@H](C)CC)C(C)C)C(C)C [KKWKIVVIRWRR]
[15]
  MIC: 1.2 µM (≈ 2 µg/mL)

## CC[C@H](C)[C@H](NC(=O)[C@H](C)NC(=O)[C@@H](NC(=O)[C@H](CCCCN)NC(=O)[C@H](CCCCN)NC(=O)[C@H](Cc1cnc[nH]1)NC(=O)[C@@H](NC(=O)[C@H](CCCN=C(N)N)NC(=O)[C@H](CS)NC(=O)[C@@H](N)CC(C)C)C(C)C)[C@@H](C)CC)C(=O)O [LCRVHKKIAI]
[15]
  MIC: ≥ 169 µM

## CC[C@H](C)[C@H](NC(=O)[C@H](C)NC(=O)[C@@H](N)CC(N)=O)C(=O)N[C@@H](CCCCN)C(=O)N[C@@H](CC(C)C)C(=O)N[C@@H](CC(C)C)C(=O)N[C@@H](CS)C(=O)N[C@@H](CCCN=C(N)N)C(=O)N[C@H](C(=O)N[C@@H](Cc1cnc[nH]1)C(=O)O)C(C)C [NAIKLLCRVH]
[15]
  MIC: ≥ 85.7 µM

## CC[C@H](C)[C@H](NC(=O)[C@H](Cc1c[nH]c2ccccc12)NC(=O)[C@H](CCCCN)NC(=O)[C@H](CC(C)C)NC(=O)[C@H](Cc1ccccc1)NC(=O)[C@H](CCCCN)NC(=O)[C@H](CC(C)C)NC(=O)[C@H](CC(C)C)NC(=O)[C@H](CCCCN)NC(=O)[C@@H]1CCCN1)C(=O)NCC(=O)O [PKLLKFLKWIG]
Escherichia coli W160-37
  MIC: 31 µM (≈ 41.6 µg/mL)
Staphylococcus aureus
  MIC: 8 µM (≈ 10.7 µg/mL)

## CC[C@H](C)[C@H](NC(=O)[C@H](CC(C)C)NC(=O)[C@H](CCCCN)NC(=O)[C@H](CO)NC(=O)[C@H](C)NC(=O)CNC(=O)[C@H](CCCCN)NC(=O)[C@H](CC(C)C)NC(=O)[C@H](C)NC(=O)[C@H](CCSC)NC(=O)[C@H](CCCCN)NC(=O)[C@H](C)NC(=O)[C@H](Cc1ccccc1)NC(=O)[C@@H](NC(=O)CNC(=O)[C@H](Cc1ccccc1)NC(=O)[C@H](CC(C)C)NC(=O)[C@@H](N)CO)[C@@H](C)O)C(=O)N1CCC[C@H]1C(=O)N[C@@H](Cc1cnc[nH]1)C(=O)N[C@@H](CC(C)C)C(=O)N[C@@H](CC(C)C)C(=O)N1CCC[C@H]1C(=O)N[C@@H](CO)C(=O)N[C@@H](CCCN=C(N)N)C(=O)N[C@@H](CCC(N)=O)C(=O)N[C@@H](CCC(N)=O)C(=O)O [SLFGTFAKMALKGASKLIPHLLPSRQQ]
[3]
  MIC: 2.83 µM
Micrococcus luteus
  MIC: 0.5 µM
[8]
  MIC: 5.66 µM
Saccharomyces cerevisiae
  MIC: 16 µM
[7]
  MIC: 1 µM

## CSCC[C@H](NC(=O)CNC(=O)[C@@H](NC(=O)[C@H](CO)NC(=O)[C@H](Cc1ccccc1)NC(=O)[C@@H](NC(=O)[C@H](Cc1ccccc1)NC(=O)[C@H](Cc1ccc(O)cc1)NC(=O)[C@H](CO)NC(=O)[C@H](CCC(=O)O)NC(=O)[C@@H](N)[C@@H](C)O)C(C)C)C(C)C)C(N)=O [TESYFVFSVGM]
[16]
  MIC: ≥ 50 µM
[17]
  MIC: 17.7 µM (≈ 22.4 µg/mL)
[18]
  MIC: ≥ 50 µM
[19]
  MIC: 17.7 µM (≈ 22.4 µg/mL)
[20]
  MIC: ≥ 50 µM
[21]
  MIC: ≥ 50 µM

## CC[C@H](C)[C@H](NC(=O)[C@H](CCCN=C(N)N)NC(=O)[C@H](CCCN=C(N)N)NC(=O)[C@@H]1CCCN1C(=O)[C@@H]1CCCN1C(=O)[C@H](CCCN=C(N)N)NC(=O)[C@@H]1CCCN1C(=O)[C@H](CCCN=C(N)N)NC(=O)[C@@H]1CCCN1C(=O)[C@H](CC(C)C)NC(=O)[C@H](Cc1ccc(O)cc1)NC(=O)[C@@H]1CCCN1C(=O)[C@@H]1CCCN1C(=O)[C@H](CCCCN)NC(=O)[C@@H]1CCCN1C(=O)[C@@H](N)C(C)C)C(=O)N[C@@H](Cc1ccc(O)cc1)C(=O)N[C@@H](CC(N)=O)C(=O)N[C@@H](CCCN=C(N)N)C(=O)NCC(=O)O [VPKPPYLPRPRPPRRIYNRG]
[15]
  MIC: 0.123 µM (≈ 0.3 µg/mL)
